In PubChem BioAssay (NCI):
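The compound was tested at five concentrations on cells cultured in 96-well plates, with a 48-hour exposure period. GI50 marks 50% less growth. At the TGI there is no net growth.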

Assays:
Assay in all cases: DTP human tumour cell line panel, 48 h
[1] = system: COLO 205 colon
[2] = system: NCI-H522 lung
[3] = system: SNB-19 CNS
[4] = system: HT29 colon
[5] = system: LOX IMVI melanoma
[6] = system: NCI-H23 lung

SMILES	TGI [1] [µM]	TGI [2] [µM]	TGI [3] [µM]	TGI [4] [µM]	TGI [5] [µM]	TGI [6] [µM]	GI50 [1] [µM]	GI50 [3] [µM]	GI50 [4] [µM]	GI50 [5] [µM]	GI50 [2] [µM]	GI50 [6] [µM]
Nc1nc(N)c(N=Nc2ccc(C(=O)O)c(O)c2)c(N)n1	> 100	> 100	> 100	> 100	> 100	> 100	–	–	–	–	–	–
COC(=O)C1=C(O)[C@H](C(=O)OC)[C@]2(O)[C@@H](C(=O)OC)[C@H]1C[C@@H](c1ccc(OC(=O)/C=C/c3ccco3)cc1)[C@@H]2C(=O)OC	87.9	–	87.5	> 100	3.17	–	15	22.6	11.5	1.59	–	–
CC1CC(C)C2=NOS3=C2C1=NO3 (configuration not stated)	> 100	> 100	> 100	> 100	> 100	> 100	–	–	–	–	–	–
Cc1nnc(-c2ccc(C)c(-c3ccc(C(=O)NCc4ccc(Cl)cc4)cc3)c2)o1	> 23.7	> 25	> 25	> 25	> 25	> 25	9.08	> 22.6	19.8	> 25	8.49	11.3
CCCCCCN(C)Cc1ccc(OCCOc2ccc(CN(C)CCCCCC)cc2)cc1	2.19	2.25	3.87	1.53	2.87	3.42	0.659	1.71	0.375	1.35	0.944	1.52
C[C@@H]1CC[C@@H]2[C@@H](C)C[C@H]3[C@@H]4C(C)(C)OC(=O)[C@]4(C)C(=O)[C@@]23C1=O	> 100	> 100	> 100	> 100	> 100	> 100	–	–	–	–	> 100	–
CCOc1c(C#N)c2c(N)ncnc2n1C1OC(CO)C(O)C1O (configuration not stated)	10	39.9	> 100	> 34.1	> 100	34.4	2.17	9.1	2.89	2.98	8.18	3.69
O=C(Nc1cccnc1)c1ccc2ccc3ccc(C(=O)Nc4cccnc4)nc3c2n1	> 100	> 100	> 100	> 100	> 100	> 100	0.135	0.0845	0.0458	0.18	0.525	0.202
COc1cc(-c2ccc(NC(=O)NC3CC3)c(OC)c2)ccc1NC(=O)NC1CC1	> 100	> 62.5	> 100	> 100	> 83.8	> 100	7.67	8.87	5.81	3.15	4.94	> 68.5
COc1ccc2c(c1)N(CCO)C1=C(C(=O)OC1)C2c1ccccc1 (configuration not stated)	4.85	3.33	> 50	5.73	> 50	> 50	1.8	2.32	1.77	2.92	0.746	1.94
O=C(NN1C(=O)CSC12CCCC2)C(O)c1ccccc1 (configuration not stated)	> 100	> 100	> 100	> 100	> 100	> 100	> 100	> 100	> 100	> 100	> 100	> 100
C1CCN2CC3CCCN4CCCC(C2C1)C34 (configuration not stated)	> 100	> 100	> 100	> 100	> 100	> 100	–	–	–	–	–	–
NNC(=S)Nc1cccc(Cl)c1	> 100	> 100	> 100	> 100	> 100	> 100	–	–	–	–	–	–
CC(C)(C)c1ccc(O)c(CN(Cc2cc(C(C)(C)C)ccc2O)C2CCCCC2)c1	6.81	33.7	41	37.1	24.1	48.7	–	–	–	–	–	–
CN1CCN(Cc2ccc(NC(=O)c3cncc(C#Cc4cnn5ccccc45)c3)cc2C(F)(F)F)CC1	1.05	2.27	5.03	4.89	1.37	1.97	0.291	1.58	0.811	0.588	0.838	0.655
COc1cc2ncn(-c3cc(OCc4ccccc4C(F)(F)F)c(C(C)=O)s3)c2cc1OC	> 25	> 25	> 25	> 25	> 25	> 25	> 25	> 25	> 25	> 25	> 25	> 25
N#Cc1c(N)nc(N2CCSCC2)c(C#N)c1-c1ccc(O)cc1	47.1	52.7	98.9	37.6	30.3	36	19.8	27.9	16.7	15.2	22	17.4
O=C(Nc1cccc(Cl)c1)c1cc(N=Nc2ccc([N+](=O)[O-])cc2Cl)ccc1O	11	6.95	> 100	9.5	10.8	4.58	3.19	3.07	2.83	3.02	2.94	1.93
CC(=O)C1CCC2C3CC=C4CC(SC(=N)N)CCC4(C)C3CCC12C (configuration not stated)	2.94	–	32.1	2.14	–	5.34	1.6	3.12	0.809	–	–	2.02
CC(C)CCC(=O)[C@@H](C)[C@H]1[C@@H](OC2OCC(O)C(O)C2NS(C)(=O)=O)C[C@H]2[C@@H]3CC=C4C[C@@H](O)CC[C@]4(C)[C@H]3CC[C@]12C (some centres not stated)	5.92	12.5	6.77	12.5	5.22	12.7	1.42	1.34	3.02	1.19	5.05	3.3
CC[C@]12C=CCN3CC[C@@]4(c5ccc(OC)cc5N(C)[C@H]4[C@@](O)(C(=O)OC)[C@@H]1OC(=O)CCC(=O)N[C@H](Cc1c[nH]c4ccccc14)C(=O)OC)[C@@H]32	14.3	34.9	48.8	14.4	–	54.3	3.47	4.74	3.11	–	14.4	13.5
